This note sets out measurements from US20230131025A1, “QUINOLYL PHOSPHINE OXIDE COMPOUND, AND COMPOSITION AND APPLICATION THEREOF” (Betta Pharmaceuticals Co., Ltd., priority 2020, published 2023).

The structures appear in SMILES notation.

The assay concerns Ba/F3-Δ19del/T790M/C797S-derived xenograft (CDX). Briefly: In vivo efficacy experiment, xenograft tumor growth. Set-up: species or system BALB/c nude mice. The protocol: In vivo efficacy experiments were performed on Ba/F3-Δ19del/T790M/C797S-derived xenograft (CDX) BALB/c nude mice. […] They were fed in an SPF environment, with each cage individually ventilated (6 mice per cage). […] Each mouse was subcutaneously inoculated with 0.1 mL cells (5×10^6 cells, the volume ratio of matrigel to cell was 1:1) on the right upper limb. When the tumor volume was about 150 mm^3, the grouped mice were separately administered with compound J-022 (10 mg/kg, 100 mg/kg, 150 mg/kg) orally QD for 15 consecutive days. Tumor diameters were measured with vernier calipers twice a week. The volume of tumor is calculated as: V=0.5a×b^2, wherein a and b represent the long diameter and short diameter of the tumor, respectively. The tumor growth inhibition rate TGI (%) was calculated to evaluate the tumor inhibitory effect of the compounds. TGI (%) was calculated with the following formula: TGI (%)=(1−(the average tumor volume of the compound treatment group at the end of the administration−the average tumor volume of the compound treatment group at the beginning of the administration)/(the average tumor volume of the solvent control group at the end of treatment−the average tumor volume of the solvent control group at the beginning of treatment))×100%.

For the compound `COc1cc(N2CCC(N3CCN(C)CC3)CC2)c(C)cc1Nc1ncc(Br)c(Nc2ccc3nc(C4CC4)ccc3c2P(C)(C)=O)n1` [Compound J-022, (6-((5-Bromo-2-((2-methoxy-5-methyl-4-(4-(4-methylpiperazin-1-yl)piperidin-1-yl)phenyl)amino)pyrimidin-4-yl)amino)-2-cyclopropylquinolin-5-yl)dimethylphosphine oxide], the Tumor volume by setting is: (10 mg/kg/day oral QD, 0 day) 152 mm^3; (10 mg/kg/day oral QD, 3 day) 183 mm^3; (10 mg/kg/day oral QD, 7 day) 321 mm^3; (10 mg/kg/day oral QD, 10 day) 747 mm^3; (10 mg/kg/day oral QD, 15 day) 1650 mm^3; (100 mg/kg/day oral QD, 0 day) 151 mm^3. For the same compound, the Tumor volume was determined as 99 mm^3 (100 mg/kg/day oral QD, 3 day); 59 mm^3 (100 mg/kg/day oral QD, 7 day); 0 mm^3 (100 mg/kg/day oral QD, 10 day); 0 mm^3 (100 mg/kg/day oral QD, 15 day); 152 mm^3 (150 mg/kg/day oral QD, 0 day); 102 mm^3 (150 mg/kg/day oral QD, 3 day). Moreover, the Tumor volume (150 mg/kg/day oral QD, 7 day) came to 4 mm^3; the Tumor volume (150 mg/kg/day oral QD, 10 day) came out at 0 mm^3; the Tumor volume (150 mg/kg/day oral QD, 15 day) is 0 mm^3. Besides, the “15 day TGI %” value is, setting by setting: (10 mg/kg/day oral QD, 15 consecutive days) 53%; (100 mg/kg/day oral QD, 15 consecutive days) 105%; (150 mg/kg/day oral QD, 15 consecutive days) 105%. Where the note is “100 mg/kg/day or 150 mg/kg/day, 15 consecutive days”, the Tumor regression result is given as “tumor completely regressed”. For the setting “dose with TGI 53%”, this compound returned a half effective dose of 10 mg/kg/day.
